Data: patent US8729115B2 (Cardiolynx AG, priority 2010, dated 2014)
Where two headings read alike, the source gives them in different places.

Assays:
rat aortic ring segments = experiment: Isometric tension: vasodilation of rat aortic ring segments preconstricted with phenylephrine; assay type: cell-based; details: for pD2-value (vasodilatory potency) / EC50: concentration-relaxation curve; for pD2-value (vasodilatory potency) / Vasodilatory potency (in words) / EC50: phenylephrine-preconstricted rat aorta; for EC50: read-out: pD2-value (vasodilatory potency) (converted)
Method: Vasodilation of rat aortic ring segments preconstricted with phenylephrine, Example 3, Table 1. […].
After reaching a stable preconstriction of vascular tone, the vessels were dose-dependently vasodilated until the final tone at the highest added concentration of the vasodilator was reached. The vasodilators were added at half-logarithmic concentrations starting at 10^−8 M (=10 nanomolar). Vasodilatory potency was compared creating a concentration-relaxation curve. The data are based on experiments with aorta from at least 6 rats on 3 different days.

[1] = test system: isolated rat cardiac mitochondria; experiment: ROS/RONS formation in isolated mitochondria (L-012 chemiluminescence)
Excerpt: Reactive oxygen and nitrogen species formation in response to in vitro challenge of isolated rat cardiac mitochondria based on reaction of the chemiluminescence dye L-012 (a luminal analogue), Example 4, Table 2. X-axis: compounds tested with concentration [μM]; y-axis: photons n per 30 sec of emission of chemiluminescence light (ECL).
Vascular oxidative stress is a well-known side effect of nitrate tolerance (an adverse condition that develops under chronic nitrate therapy). Therefore, the induction of reactive oxygen and nitrogen species formation in response to in vitro challenges with the test compounds was assessed in isolated mitochondria according to a published procedure [Daiber, A. et al., Mol Pharmacol 66 (2004), 1372-1382; Daiber, A. et al., Biochem Biophys Res Commun 338 (2005), 1865-1874; Daiber, A. et al., Mol Pharmacol 68 (2005), 579-588]. The assay is based on the reaction of the chemiluminescence dye L-012 (a luminol analogue) with reactive oxygen and nitrogen species (RONS, e.g. superoxide anion radicals, peroxynitrite anions or nitrogen dioxide radicals) and subsequent emission of chemiluminescence light (ECL). The signal is counted in photons/time (=counts/30 s). The data are based on experiments with cardiac mitochondria from at least 6 rats on 3 different days.

Beagle dogs = experiment: Effects on blood pressure in Beagle dogs; assay type: in vivo, dog
Method: Each group was administered three ascending doses separated by 4 wash out days providing 9 different treatments as shown in the following table:
The liquid was administered per gavage. […] The capsule was administered orally.
In this group the liquid was administered intravenously as a slow bolus injection.
Blood pressure was assessed for all treatments before dosing and 1, 2, 3, 4, 5, 6, 8, 12 and 24 h after dosing.

Wistar rats = experiment: Endothelial dysfunction, in vivo tolerance and cross-tolerance after 7 days treatment; design: species or system rat
Method: To assess the tendency of a given organic nitrate to induce in vivo tolerance and endothelial dysfunction, Wistar rats were treated for 7 days with placebo (solvent alone) or 3 increasing doses of the organic nitrate. […] Vascular function was assessed by isometric tension studies as described above. Acetylcholine (ACh) is an endothelium-dependent vasodilator whereas organic nitrates (e.g. compound 1 or nitroglycerin) are endothelium-independent vasodilators. Endothelial dysfunction will result in impaired ACh-dependent relaxation whereas nitrate tolerance and/or vascular dysfunction causes impaired compound 1 dependent or nitroglycerin dependent vasodilation.

[2] = 10-1000 μM, isolated mitochondria

Compound: O=[N+]([O-])OCCCCO [HBN, 1-Hydroxy-4-butyl nitrate]
- Isometric tension, relaxation (Mean ± SEM) (rat aortic ring segments; Log [M] −3): 95.71 ± 1.27%
- Isometric tension, relaxation (Mean ± SEM) (rat aortic ring segments; Log [M] −3.5): 95.69 ± 2.40%
- Isometric tension, relaxation (Mean ± SEM) (rat aortic ring segments; Log [M] −4): 77.74 ± 3.73%
- Isometric tension, relaxation (Mean ± SEM) (rat aortic ring segments; Log [M] −4.5): 55.15 ± 5.33%
- Isometric tension, relaxation (Mean ± SEM) (rat aortic ring segments; Log [M] −5): 34.50 ± 4.63%
- Isometric tension, relaxation (Mean ± SEM) (rat aortic ring segments; Log [M] −5.5): 15.21 ± 4.71%
- Isometric tension, relaxation (Mean ± SEM) (rat aortic ring segments; Log [M] −6): 7.11 ± 2.87%
- Isometric tension, relaxation (Mean ± SEM) (rat aortic ring segments; Log [M] −6.5): 3.24 ± 2.77%
- Isometric tension, relaxation (Mean ± SEM) (rat aortic ring segments; Log [M] −7): 1.42 ± 2.55%
- Isometric tension, relaxation (Mean ± SEM) (rat aortic ring segments; Log [M] −7.5): 1.84 ± 1.72%
- pD2-value (vasodilatory potency) (rat aortic ring segments): approximately 4.5
- Vasodilatory potency (in words) (rat aortic ring segments): intermediate vasodilatory potency
- Effect on RONS signal / in vitro oxidative stress (in words) [1, 2]: somewhat more pronounced effects on RONS formation
- ROS formation, Mean (ECL signal) ([1]; Conc. 10 μM): 5116.17 counts/30 s
- ROS formation, Mean (ECL signal) ([1]; Conc. 100 μM): 3005.75 counts/30 s
- ROS formation, Mean (ECL signal) ([1]; Conc. 1000 μM): 10472.33 counts/30 s

Compound: O=[N+]([O-])O[C@H]1CO[C@H]2[C@@H]1OC[C@H]2O[N+](=O)[O-] [ISDN, Isosorbide dinitrate]
- Effect on RONS signal / in vitro oxidative stress (in words) [1, 2]: increases the RONS signal in a concentration-dependent fashion, although only slightly
- ROS formation, Mean (ECL signal) ([1]; Conc. 10 μM): 5718.33 counts/30 s
- ROS formation, Mean (ECL signal) ([1]; Conc. 100 μM): 6608.83 counts/30 s
- ROS formation, Mean (ECL signal) ([1]; Conc. 1000 μM): 8744.83 counts/30 s

Compound: CNCCCCO[N+](=O)[O-].O=[N+]([O-])O [MNBAN, N-Methyl-N-(4-nitroxybutyl)ammonium nitrate]
- Isometric tension, relaxation (Mean ± SEM) (rat aortic ring segments; Log [M] −3): 95.84 ± 2.26%
- Isometric tension, relaxation (Mean ± SEM) (rat aortic ring segments; Log [M] −3.5): 88.56 ± 2.69%
- Isometric tension, relaxation (Mean ± SEM) (rat aortic ring segments; Log [M] −4): 74.46 ± 4.13%
- Isometric tension, relaxation (Mean ± SEM) (rat aortic ring segments; Log [M] −4.5): 50.81 ± 6.88%
- Isometric tension, relaxation (Mean ± SEM) (rat aortic ring segments; Log [M] −5): 30.56 ± 7.29%
- Isometric tension, relaxation (Mean ± SEM) (rat aortic ring segments; Log [M] −5.5): 14.85 ± 5.75%
- Isometric tension, relaxation (Mean ± SEM) (rat aortic ring segments; Log [M] −6): 8.33 ± 4.85%
- Isometric tension, relaxation (Mean ± SEM) (rat aortic ring segments; Log [M] −6.5): 5.04 ± 3.29%
- Isometric tension, relaxation (Mean ± SEM) (rat aortic ring segments; Log [M] −7): 3.24 ± 2.80%
- Isometric tension, relaxation (Mean ± SEM) (rat aortic ring segments; Log [M] −7.5): 1.72 ± 1.50%
- EC50 (rat aortic ring segments): ~31.6 µM
- Vasodilatory potency (in words) (rat aortic ring segments): intermediate vasodilatory potency
- Effect on RONS signal / in vitro oxidative stress (in words) [1]: somewhat more pronounced effects on RONS formation

Compound: CCCCC(=O)N(Cc1ccc(-c2ccccc2-c2nnn[nH]2)cc1)C(C(=O)N(C)CCCCO[N+](=O)[O-])C(C)C [compound 2, (2R)-3-Methyl-2-(N-((2′-(1H-tetrazol-5-yl)biphenyl-4-yl)methyl)pentanamido)-butanoyl N-methyl-N-4-nitroxybutyl-amide]
- Isometric tension, relaxation (Mean ± SEM) (rat aortic ring segments; Log [M] −3.5): 50.40 ± 7.89%
- Isometric tension, relaxation (Mean ± SEM) (rat aortic ring segments; Log [M] −4): 31.38 ± 6.92%
- Isometric tension, relaxation (Mean ± SEM) (rat aortic ring segments; Log [M] −4.5): 13.69 ± 3.68%
- Isometric tension, relaxation (Mean ± SEM) (rat aortic ring segments; Log [M] −5): 8.61 ± 2.77%
- Isometric tension, relaxation (Mean ± SEM) (rat aortic ring segments; Log [M] −5.5): 8.56 ± 2.18%
- Isometric tension, relaxation (Mean ± SEM) (rat aortic ring segments; Log [M] −6): 7.43 ± 1.86%
- Isometric tension, relaxation (Mean ± SEM) (rat aortic ring segments; Log [M] −6.5): 6.06 ± 1.69%
- Isometric tension, relaxation (Mean ± SEM) (rat aortic ring segments; Log [M] −7): 4.61 ± 1.19%
- Isometric tension, relaxation (Mean ± SEM) (rat aortic ring segments; Log [M] −7.5): 2.45 ± 0.93%
- EC50 (rat aortic ring segments): < 100 µM
- ROS formation, Mean (ECL signal) ([1]; rat, 10 μM): 9007.83 counts/30 s
- ROS formation, Mean (ECL signal) ([1]; rat, 100 μM): 4532.33 counts/30 s
- ROS formation, Mean (ECL signal) ([1]; rat, 1000 μM): 4386.00 counts/30 s

Compound: CCCCC(=O)N(Cc1ccc(-c2ccccc2-c2nnn[nH]2)cc1)[C@H](C(=O)O)C(C)C [compound 3, Valsartan]
- Isometric tension, relaxation (Mean ± SEM) (rat aortic ring segments; Log [M] −3.5): 21.98 ± 3.75%
- Isometric tension, relaxation (Mean ± SEM) (rat aortic ring segments; Log [M] −4): 9.43 ± 2.03%
- Isometric tension, relaxation (Mean ± SEM) (rat aortic ring segments; Log [M] −4.5): 4.94 ± 2.65%
- Isometric tension, relaxation (Mean ± SEM) (rat aortic ring segments; Log [M] −5): 0.29 ± 2.56%
- Isometric tension, relaxation (Mean ± SEM) (rat aortic ring segments; Log [M] −5.5): −0.58 ± 3.84%
- Isometric tension, relaxation (Mean ± SEM) (rat aortic ring segments; Log [M] −6): 1.05 ± 3.85%
- Isometric tension, relaxation (Mean ± SEM) (rat aortic ring segments; Log [M] −6.5): 0.87 ± 2.97%
- Isometric tension, relaxation (Mean ± SEM) (rat aortic ring segments; Log [M] −7): 1.64 ± 3.06%
- Isometric tension, relaxation (Mean ± SEM) (rat aortic ring segments; Log [M] −7.5): 4.25 ± 2.13%
- EC50 (rat aortic ring segments): < 1000 µM
- Vasodilatory potency (in words) (rat aortic ring segments): weak relaxing effects
- ROS formation, Mean (ECL signal) ([1]; rat, 10 μM): 2971.58 counts/30 s
- ROS formation, Mean (ECL signal) ([1]; rat, 100 μM): 2871.29 counts/30 s
- ROS formation, Mean (ECL signal) ([1]; rat, 1000 μM): 9878.96 counts/30 s

Compound: (2R)-3-Methyl-2-(N-((2′-(1-(2″-nitroxyethylaminocarbonyloxymethyl)-1H-tetrazol-5-yl)biphenyl-4-yl)methyl)pentanamido)butanoyl N-methyl-N-4-nitroxybutyl-amide 1A and the corresponding 2-(2″-nitroxyethylaminocarbonyloxymethyl)-2H-tetrazol-5-yl isomer 1B [compound 1]
- Blood pressure lowering effect (in words) (Beagle dogs; gavage, oral capsule or intravenous, ascending doses): two sequential lowerings of blood pressure
- Duration of effect on blood pressure (Beagle dogs; overall): at least 10 hours
- Blood pressure lowering observed up to (Beagle dogs; several animals): up to 24 hours
- Isometric tension, relaxation (Mean ± SEM) (rat aortic ring segments; Log [M] −3.5): 91.52 ± 3.83%
- Isometric tension, relaxation (Mean ± SEM) (rat aortic ring segments; Log [M] −4): 88.20 ± 5.11%
- Isometric tension, relaxation (Mean ± SEM) (rat aortic ring segments; Log [M] −4.5): 81.43 ± 6.54%
- Isometric tension, relaxation (Mean ± SEM) (rat aortic ring segments; Log [M] −5): 59.97 ± 6.28%
- Isometric tension, relaxation (Mean ± SEM) (rat aortic ring segments; Log [M] −5.5): 43.47 ± 5.88%
- Isometric tension, relaxation (Mean ± SEM) (rat aortic ring segments; Log [M] −6): 27.39 ± 4.09%
- Isometric tension, relaxation (Mean ± SEM) (rat aortic ring segments; Log [M] −6.5): 14.66 ± 2.59%
- Isometric tension, relaxation (Mean ± SEM) (rat aortic ring segments; Log [M] −7): 8.52 ± 1.64%
- Isometric tension, relaxation (Mean ± SEM) (rat aortic ring segments; Log [M] −7.5): 4.64 ± 0.93%
- pD2-value (vasodilatory potency) (rat aortic ring segments): approximately 5.5
- Vasodilatory potency (in words) (rat aortic ring segments; listed as Valsartan dinitrate 1): as potent as isosorbide dinitrate
- Vasodilatory potency (in words) (rat aortic ring segments; listed as valsartan dinitrate 1): as active as isosorbide dinitrate
- Effect on RONS signal / in vitro oxidative stress (in words) ([1]; 10-1000 μM, isolated mitochondria, listed as dinitrate 1): RONS signal is suppressed at higher concentrations
- Effect on RONS signal / in vitro oxidative stress (in words) ([1]; 10-1000 μM, isolated mitochondria, listed as valsartan dinitrate 1): does not induce in vitro oxidative stress in isolated mitochondria
- ROS formation, Mean (ECL signal) ([1]; Conc. 10 μM): 6820.33 counts/30 s
- ROS formation, Mean (ECL signal) ([1]; Conc. 100 μM): 4534.00 counts/30 s
- ROS formation, Mean (ECL signal) ([1]; Conc. 1000 μM): 5088.33 counts/30 s
- Adverse effects on endothelial or vascular function, in vivo tolerance or cross tolerance (Wistar rats; low and middle dose): did not show any significant adverse effects on endothelial or vascular function
- Toxic effects (Wistar rats; up to the highest dose): not show any toxic effects
